This assay has as its target T1, AM2 receptor (CALCRL+RAMP3) (Homo sapiens, UniProt O60896+Q16602).
T1 construct: host or cells: 1321N1
The assay is described as follows: AM2 receptor inhibition, LANCE TR-FRET cAMP agonist-antagonist competition assay. The format is cell-based. The following applies: inhibition of AM induced cAMP activation; 1321N1 cells transfected with CALCRL+RAMP3; read-out: AM2 pIC50 (converted).

Consider 23 compounds from US11400081B2, “Compounds” (The University of Sheffield, priority 2017, dated 2022).

T1 sequence (Q16602 23-461): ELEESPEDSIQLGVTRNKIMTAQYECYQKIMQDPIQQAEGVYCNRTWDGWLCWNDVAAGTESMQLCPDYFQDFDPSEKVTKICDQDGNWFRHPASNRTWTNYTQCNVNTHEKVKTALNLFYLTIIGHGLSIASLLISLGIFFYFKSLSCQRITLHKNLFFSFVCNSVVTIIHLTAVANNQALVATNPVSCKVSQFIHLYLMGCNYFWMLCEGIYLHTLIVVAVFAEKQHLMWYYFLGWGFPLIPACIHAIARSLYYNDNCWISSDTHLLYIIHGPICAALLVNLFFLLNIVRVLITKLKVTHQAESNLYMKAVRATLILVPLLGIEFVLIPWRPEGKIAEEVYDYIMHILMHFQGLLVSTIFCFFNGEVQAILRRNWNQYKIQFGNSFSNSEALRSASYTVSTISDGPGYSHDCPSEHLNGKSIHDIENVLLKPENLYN
T1 sequence (O60896 24-148): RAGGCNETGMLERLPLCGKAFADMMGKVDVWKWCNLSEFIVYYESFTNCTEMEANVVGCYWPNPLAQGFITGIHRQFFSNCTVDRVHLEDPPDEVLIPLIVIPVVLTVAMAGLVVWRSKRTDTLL

Consider `CNCc1ccccc1CN(CC(=O)Nc1ccc2c(c1)CC1(C2)C(=O)Nc2ncccc21)C(=O)C1CCCN1C(C)=O` (centres unmarked) [Example 69, 1-Acetyl-N-[[2-(methylaminomethyl)phenyl]methyl]-N-[2-oxo-2-[(2-oxospiro[1H-pyrrolo[2,3-b]pyridine-3,2′-indane]-5′-yl)amino]ethyl]pyrrolidine-2-carboxamide], for which the IC50 is 0.129 µM.
Regarding `CNCc1ccccc1CN(CC(=O)Nc1ccc2c(c1)CC1(C2)C(=O)Nc2ncccc21)C(=O)C1CCN(C(=O)CN)CC1` (centres unmarked) [Example 70, 1-(2-aminoacetyl)-N-(2-((methylamino)methyl)benzyl)-N-(2-oxo-2-((2′-oxo-1,1′,2′,3-tetrahydrospiro[indene-2,3′-pyrrolo[2,3-b]pyridin]-5-yl)amino)ethyl)piperidine-4-carboxamide bis(2,2,2-trifluoroacetate)], the IC50 is 0.0447 µM.
Then `CNCc1ccccc1CN(CC(=O)Nc1ccc2c(c1)CC1(C2)C(=O)Nc2ncccc21)C(=O)C1CCN(C(=O)N(C)C)CC1` (centres unmarked) [Example 71, N1,N1-dimethyl-N4-(2-((methylamino)methyl)benzyl)-N4-(2-oxo-2-((2′-oxo-1,1′,2′,3-tetrahydrospiro[indene-2,3′-pyrrolo[2,3-b]pyridin]-5-yl)amino)ethyl)piperidine-1,4-dicarboxamide 2,2,2-trifluoroacetate], with 0.00245 µM; and `CNCc1ccccc1CN(CC(=O)Nc1ccc2c(c1)CC1(C2)C(=O)Nc2ncccc21)C(=O)C1CCN(C(=O)NC(C)C)CC1` (centres unmarked) [Example 73, N1-isopropyl-N4-(2-((methylamino)methyl)benzyl)-N4-(2-oxo-2-((2′-oxo-1,1′,2′,3-tetrahydrospiro[indene-2,3′-pyrrolo[2,3-b]pyridin]-5-yl)amino)ethyl)piperidine-1,4-dicarboxamide 2,2,2-trifluoroacetate], with 0.00832 µM.
`CNCc1ccccc1CN(CC(=O)Nc1ccc2c(c1)CC1(C2)C(=O)Nc2ncccc21)C(=O)C1CCN(C(C)=O)C1` (centres unmarked) [Example 74, 1-acetyl-N-(2-((methylamino)methyl)benzyl)-N-(2-oxo-2-((2′-oxo-1,1′,2′,3-tetrahydrospiro[indene-2,3′-pyrrolo[2,3-b]pyridin]-5-yl)amino)ethyl)pyrrolidine-3-carboxamide 2,2,2-trifluoroacetate]: the IC50 is 0.0155 µM.
Take `CNCc1ccccc1CN(CC(=O)Nc1ccc2c(c1)CC1(C2)C(=O)Nc2ncccc21)C(=O)C1(C(F)(F)F)CC1` (centres unmarked) [Example 75, N-[[2-(methylaminomethyl)phenyl]methyl]-N-[2-oxo-2-[(2-oxospiro[1H-pyrrolo[2,3-b]pyridine-3,2′-indane]-5′-yl)amino]ethyl]-1-(trifluoromethyl)cyclopropanecarboxamide 2,2,2-trifluoroacetate]: the IC50 was 0.00363 µM.
To `CNCc1ccccc1CN(CC(=O)Nc1ccc2c(c1)CC1(C2)C(=O)Nc2ncccc21)C(=O)C1(C(F)(F)F)CCC1` (centres unmarked) [Example 76, N-[[2-(methylaminomethyl)phenyl]methyl]-N-[2-oxo-2-[(2-oxospiro[1H-pyrrolo[2,3-b]pyridine-3,2′-indane]-5′-yl)amino]ethyl]-1-(trifluoromethyl)cyclobutanecarboxamide 2,2,2-trifluoroacetate] belongs 0.00135 µM; to `CNCc1ccccc1CN(CC(=O)Nc1ccc2c(c1)CC1(C2)C(=O)Nc2ncccc21)C(=O)C12CC(N)(C1)C2` (centres unmarked) [Example 77, 3-amino-N-[[2-(methylaminomethyl)phenyl]methyl]-N-[2-oxo-2-[(2-oxospiro[1H-pyrrolo[2,3-b]pyridine-3,2′-indane]-5′-yl)amino]ethyl]bicyclo[1.1.1]pentane-1-carboxamide bis(2,2,2-trifluoroacetate)], 0.0447 µM; to `CNCc1ccccc1CN(CC(=O)Nc1ccc2c(c1)CC1(C2)C(=O)Nc2ncccc21)C(=O)C12CC(C1)C2` (centres unmarked) [Example 78, N-(2-((methylamino)methyl)benzyl)-N-(2-oxo-2-((2′-oxo-1,1′,2′,3-tetrahydrospiro[indene-2,3′-pyrrolo[2,3-b]pyridin]-5-yl)amino)ethyl)bicyclo[1.1.1]pentane-1-carboxamide 2,2,2-trifluoroacetate], 0.0055 µM.
`CNCc1ccccc1CN(CC(=O)Nc1ccc2c(c1)CC1(C2)C(=O)Nc2ncccc21)C(=O)C1CCN(C(C)=O)CC1` (centres unmarked) [Example 79, 1-Acetyl-N-(2-((methylamino)methyl)benzyl)-N-(2-oxo-2-((2′-oxo-1,1′,2′,3-tetrahydrospiro[indene-2,3′-pyrrolo[2,3-b]pyridin]-5-yl)amino)ethyl)piperidine-4-carboxamide]: the IC50 is 0.0224 µM.
To `CNCc1ccccc1CN(CC(=O)Nc1ccc2c(c1)CC1(C2)C(=O)Nc2ncccc21)C(=O)C1CCOC1` (centres unmarked) [Example 80, N-(2-((Methylamino)methyl)benzyl)-N-(2-oxo-2-((2′-oxo-1,1′,2′,3-tetrahydrospiro[indene-2,3′-pyrrolo[2,3-b]pyridin]-5-yl)amino)ethyl)tetrahydrofuran-3-carboxamide] belongs 0.0148 µM.
To `CNCc1ccccc1CN(CC(=O)Nc1ccc2c(c1)CC1(C2)C(=O)Nc2ncccc21)C(=O)N1CCCC1` (centres unmarked) [Example 81, N-(2-((Methylamino)methyl)benzyl)-N-(2-oxo-2-((2′-oxo-1,1′,2′,3-tetrahydrospiro[indene-2,3′-pyrrolo[2,3-b]pyridin]-5-yl)amino)ethyl)pyrrolidine-1-carboxamide] belongs 0.00741 µM.
To `CNCc1ccccc1CN(CC(=O)Nc1ccc2c(c1)CC1(C2)C(=O)Nc2ncccc21)C(=O)N(C)OC` (centres unmarked) [Example 82, 2-(3-Methoxy-3-methyl-1-(2-((methylamino)methyl)benzyl)ureido)-N-(2′-oxo-1,1′,2′,3-tetrahydrospiro[indene-2,3′-pyrrolo[2,3-b]pyridin]-5-yl)acetamide] belongs 0.263 µM.
Consider `CNCc1ccccc1CN(CC(=O)Nc1ccc2c(c1)CC1(C2)C(=O)Nc2ncccc21)C(=O)NC1CCCC1` (centres unmarked) [Example 83, 2-(3-Cyclopentyl-1-(2-((methylamino)methyl)benzyl)ureido)-N-(2′-oxo-1,1′,2′,3-tetrahydrospiro[indene-2,3′-pyrrolo[2,3-b]pyridin]-5-yl)acetamide], for which the IC50 was 0.0427 µM.
Then `CNCc1ccccc1CN(CC(=O)Nc1ccc2c(c1)CC1(C2)C(=O)Nc2ncccc21)C(=O)NC(C)C` (centres unmarked) [Example 84, 2-(3-Isopropyl-1-(2-((methylamino)methyl)benzyl)ureido)-N-(2′-oxo-1,1′,2′,3-tetrahydrospiro[indene-2,3′-pyrrolo[2,3-b]pyridin]-5-yl)acetamide], with 0.0525 µM.
As for `CNCc1ccccc1CN(CC(=O)Nc1ccc2c(c1)CC1(C2)C(=O)Nc2ncccc21)C(=O)N(C)C` (centres unmarked) [Example 85, 2-(3,3-Dimethyl-1-(2-((methylamino)methyl)benzyl)ureido)-N-(2′-oxo-1,1′,2′,3-tetrahydrospiro[indene-2,3′-pyrrolo[2,3-b]pyridin]-5-yl)acetamide], the IC50 was 0.234 µM.
Then `CNCc1ccccc1CN(CC(=O)Nc1ccc2c(c1)CC1(C2)C(=O)Nc2ncccc21)C(=O)N1CCCCC1` (centres unmarked) [Example 87, N-(2-((Methylamino)methyl)benzyl)-N-(2-oxo-2-((2′-oxo-1,1′,2′,3-tetrahydrospiro[indene-2,3′-pyrrolo[2,3-b]pyridin]-5-yl)amino)ethyl)piperidine-1-carboxamide], with 0.0437 µM.
`CNCc1ccccc1CN(CC(=O)Nc1ccc2c(c1)CC1(C2)C(=O)Nc2ncccc21)C(=O)C1CCNCC1` (centres unmarked) [Example 88, N-(2-((Methylamino)methyl)benzyl)-N-(2-oxo-2-((2′-oxo-1,1′,2′,3-tetrahydrospiro[indene-2,3′-pyrrolo[2,3-b]pyridin]-5-yl)amino)ethyl)piperidine-4-carboxamide]: the IC50 is 0.148 µM.
As for `CNCc1ccccc1CN(CC(=O)Nc1ccc2c(c1)CC1(C2)C(=O)Nc2ncccc21)C(=O)N1CCC2(CCNCC2)CC1` (centres unmarked) [Example 89, N-(2-((Methylamino)methyl)benzyl)-N-(2-oxo-2-((2′-oxo-1,1′,2′,3-tetrahydrospiro[indene-2,3′-pyrrolo[2,3-b]pyridin]-5-yl)amino)ethyl)-3,9-diazaspiro[5.5]undecane-3-carboxamide], the IC50 was 0.0871 µM.
As for `CNCc1ccccc1CN(CC(=O)Nc1ccc2c(c1)CC1(C2)C(=O)Nc2ncccc21)C(=O)N1CCC2(CCNCC2)C1` (centres unmarked) [Example 90, N-(2-((Methylamino)methyl)benzyl)-N-(2-oxo-2-((2′-oxo-1,1′,2′,3-tetrahydrospiro[indene-2,3′-pyrrolo[2,3-b]pyridin]-5-yl)amino)ethyl)-2,8-diazaspiro[4.5]decane-2-carboxamide], the IC50 is 0.501 µM.
To `CNCc1ccccc1CN(CC(=O)Nc1ccc2c(c1)CC1(C2)C(=O)Nc2ncccc21)C(=O)C(C)(C)c1ccc(CN2CCNCC2)cc1` (centres unmarked) [Example 91, 2-Methyl-N-(2-((methylamino)methyl)benzyl)-N-(2-oxo-2-((2′-oxo-1,1′,2′,3-tetrahydrospiro[indene-2,3′-pyrrolo[2,3-b]pyridin]-5-yl)amino)ethyl)-2-(4-(piperazin-1-ylmethyl)phenyl)propanamide] belongs 0.024 µM; to `CNCc1ccccc1CN(CC(=O)Nc1ccc2c(c1)C[C@@]1(C2)C(=O)Nc2ncccc21)C(=O)C12CC3CC(CC(C3)C1)C2` [Example 92, N-[[2-(methylaminomethyl)phenyl]methyl]-N-[2-oxo-2-[[(3R)-2-oxospiro[1H-pyrrolo[2,3-b]pyridine-3,2′-indane]-5′-yl]amino]ethyl]adamantane-1-carboxamide 2,2,2-trifluoroacetate], 0.0794 µM; to `CNCc1ccccc1CN(CC(=O)Nc1ccc2c(c1)C[C@@]1(C2)C(=O)Nc2ncccc21)C(=O)C1(C(F)(F)F)CCCC1` [Example 94, N-[[2-(methylaminomethyl)phenyl]methyl]-N-[2-oxo-2-[[(3R)-2-oxospiro[1H-pyrrolo[2,3-b]pyridine-3,2′-indane]-5′-yl]amino]ethyl]-1-(trifluoromethyl)cyclopentanecarboxamide 2,2,2-trifluoroacetate], 0.0178 µM.
